Measurements published in patent US8951563B2, “Antibiotic drug delivery and potentiation” (Technion Research & Development Foundation Limited, priority 2009, dated 2015).
≈ marks a conversion by molar mass, not a printed value.

Tests used:
[1] = Molecular charge and RP-HPLC hydrophobicity of polymers; format: physicochemical; settings: HPLC-RP gradient mobile phase
Excerpt: Briefly, the polymers were synthesized while applying the Fmoc active ester chemistry on a fully automated, programmable peptide synthesizer (Applied Biosystems 433A). After cleavage from the resin, the crude product was extracted with 30% acetonitrile in water and purified by RP-HPLC (Alliance Waters), so as to obtain a chromatographic homogeneity higher than 95%. HPLC runs were typically performed on C18 columns (Vydac, 250 mm×4.6 or 10 mm) using a linear gradient of acetonitrile in water (1% per minute), both solvents containing 0.1% trifluoroacetic acid. The purified polymers were subjected to mass spectrometry (ZQ Waters) and NMR analyses to confirm their composition, and stored as a lyophilized powder at −20° C. Prior to being tested, fresh solutions were prepared in water, vortexed, sonicated, centrifuged and then diluted in the appropriate medium.
“Q” represents the overall molecular charge at physiological pH; “ACN (%)” represents the percent of acetonitrile in the HPLC-RP gradient mobile phase at which the polymer was eluted and which corresponds to the estimated hydrophobicity of the polymer. The column headed by “Ref.” indicates prior reference of the OAK if present, wherein a number in parentheses “(##)” corresponds to the SEQ ID NO in U.S. Pat. No. 7,504,381; the letter “R” indicates a polymer published in Radzishevsky I. S. et al. (2008), Chem. Biol., 15(4), pp. 354-362; and “New” indicates a novel polymer disclosed herein.

[2] = Cochleate formation by light microscopy; format: physicochemical; parameters: key: or above (E!); excellent (E); good (G); poor (P); none (N)
Experimental: Lipid films containing binary mixtures of lipids were made from aliquots of stock solutions in chloroform:methanol (2:1). The solvent was evaporated with a stream of nitrogen gas and the lipids deposited as a film on the walls of a glass tube. The tubes were then placed in a vacuum dessicator for 3 hours. The films were kept under Argon at −20° C. The lipid films were hydrated with buffer solutions of OAK polymers with extensive vortexing, so as to have a lipid to polymer molar ratio of […].
Hydrated films were subjected to freeze thawing three times before imaging, to ensure proper equilibration of OAK with the multilamellar vesicles. A drop of this mixture was placed on a glass slide and covered with a glass coverslip. Light microscopy was carried out at room temperature using a Zeiss Axiovert 100M microscope with a Plan-Neofluar 100×/1.3 oil immersion objective. Images were analyzed with the Zeiss LSM image browser v2.8.
The morphology of the samples of different OAKs and different lipid mixtures could be classified into the following categories.
Table 5 presents the results of cochleate formation with different lipid mixtures of 1:10 lipid to polymer ratio, and a series of OAK polymers, indicated by their alternative denotations and SED ID Nos in parentheses. “Tm” denotes the melting temperature of the lipid bilayer afforded by the given lipid mixture. Some selected samples were further analyzed to confirm the results with freeze fracture electron microscopy for, as indicated in Table 5. Cochleate formation is defined as excellent (E) or above (E!), good (G), poor (P), or none (N) based on the aforementioned comparison, as well as on the abundance of cochleate structures observed in the light microscopy images. Lipid mixtures having a number in parenthesis are samples for which freeze-fracture electron microscopy analysis was conducted. Lipid mixtures having a “+” sign next to the number in parenthesis are samples which were confirmed by freeze-fracture electron microscopy as forming large cochleates with few vesicles and no inverted micellar (HII) morphology (samples 2, 3 and 5), or smaller cochleate structures mixed with other morphologies (samples 0 and 4). Lipid mixtures which contain only anionic lipids are marked with “^A”. Sample 0 is the lipid/OAK system used and presented in Example 1 hereinabove.

[3] = test system: E. coli; format: cell-based
Experimental: (§1) All bacteria were cultured in Luria-Bertani (LB) medium (10 g/l tryptone, 5 g/l yeast extract, 5 g/l NaCl, pH 7.4).
(§2) Bacteria were grown overnight in LB growth medium and diluted 10,000-fold in same medium.
(§3) Inhibition of proliferation was determined by optical density measurements (620 nm) after incubation overnight at 37° C.

[4] = test system: A. aureus; format: cell-based
Experimental: as §1, §2, §3

[5] = DMPC:TOCL 75:25, 1:10 lipid to polymer ratio
[6] = DMPE:DOPG 75:25, 1:10 lipid to polymer ratio
[7] = DMPE:TOCL 75:25, 1:10 lipid to polymer ratio
[8] = DMPG:TOCL 75:25 (anionic lipids only), 1:10 lipid to polymer ratio
[9] = DOPE:TOCL 75:25, 1:10 lipid to polymer ratio
[10] = DPPE:TOCL 75:25, 1:10 lipid to polymer ratio
[11] = POPC:TOCL 75:25, 1:10 lipid to polymer ratio
[12] = POPE:DOPG 75:25, 1:10 lipid to polymer ratio
[13] = POPE:DOPG:TOCL 80:15:5, 1:10 lipid to polymer ratio
[14] = POPE:TOCL 75:25, 1:10 lipid to polymer ratio
[15] = POPG:TOCL 75:25 (anionic lipids only), 1:10 lipid to polymer ratio
[16] = DMPE:TOCL75:25, 10:1 lipid to polymer ratio (Table 6)
[17] = POPE:TOCL 75:25, 10:1 lipid to polymer ratio (Table 6)

ACN (%) (percent acetonitrile at elution, estimated hydrophobicity) [1]	Cochleate formation [2, 5]	Cochleate formation [2, 6]	Cochleate formation [2, 7]	Cochleate formation [2, 8]	Cochleate formation [2, 9]	Cochleate formation [2, 10]	Cochleate formation [2, 11]	Cochleate formation [2, 12]	Cochleate formation [2, 13]	Cochleate formation [2, 14]	Cochleate formation [2, 15]	MIC E. coli [3] [µM]	MIC A. aureus [4] [µM]	Cochleate formation [2, 16]	Cochleate formation [2, 17]	Compound
55.2	–	–	–	–	–	–	–	–	–	–	–	>50	>50	P	N	CCCCCCCCCCCC(=O)N[C@@H](CCCCN)C(=O)NCCCCCCCCCCCC(=O)N[C@@H](CCCCN)C(=O)NCCCCCCCCCCCC(=O)N[C@@H](CCCCN)C(=O)NCCCCCCCCCCCC(=O)N[C@@H](CCCCN)C(=O)NCCCCCCCCCCCC(=O)N[C@@H](CCCCN)C(=O)NCCCCCCCCCCCC(=O)N[C@@H](CCCCN)C(=O)NCCCCCCCCCCCC(=O)N[C@@H](CCCCN)C(=O)NCCCCCCCCCCCC(=O)N[C@@H](CCCCN)C(N)=O [C12K-7α12, C12K(NC12K)7NH2]
48.5	–	G	E	–	G	E	–	N	N	G	–	3.1 (≈ 7.7 µg/mL)	>50	–	–	CCCCCCCCCCCC(=O)NC(CCCCN)C(=O)NCCCCCCCC(=O)NC(CCCCN)C(=O)NCCCCCCCC(=O)NC(CCCCN)C(=O)NCCCCCCCC(=O)NC(CCCCN)C(=O)NCCCCCCCC(=O)NC(CCCCN)C(=O)NCCCCCCCC(=O)NC(CCCCN)C(=O)NCCCCCCCC(=O)NC(CCCCN)C(=O)NCCCCCCCC(=O)NC(CCCCN)C(=O)NCCCCCCCC(=O)NC(CCCCN)C(N)=O (stereo not drawn) [C12K-8α8, C12K(NC8K)8NH2]
48.4	N	E!	E	N	G	E	N	G	–	G	P	6.25 (≈ 17.2 µg/mL)	>50	–	–	CCCCCCCCCCCC(=O)NC(CCCCN)C(=O)NCCCCCCCC(=O)NC(CCCCN)C(=O)NCCCCCCCC(=O)NC(CCCCN)C(=O)NCCCCCCCC(=O)NC(CCCCN)C(=O)NCCCCCCCC(=O)NC(CCCCN)C(=O)NCCCCCCCC(=O)NC(CCCCN)C(=O)NCCCCCCCC(=O)NC(CCCCN)C(=O)NCCCCCCCC(=O)NC(CCCCN)C(=O)NCCCCCCCC(=O)NC(CCCCN)C(=O)NCCCCCCCC(=O)NC(CCCCN)C(N)=O (stereo not drawn) [C12K-9α8, C12K(NC8K)9NH2]
42.2	–	E	G	–	G	P	P	P	–	G	N	3.1 (≈ 10.2 µg/mL)	>50	–	–	CCCCCCCCCCCC(=O)NC(CCCCN)C(=O)NCCCCCCCC(=O)NC(CCCCN)C(=O)NCCCCCCCC(=O)NC(CCCCN)C(=O)NCCCCCCCC(=O)NC(CCCCN)C(=O)NCCCCCCCC(=O)NC(CCCCN)C(=O)NCCCCCCCC(=O)NC(CCCCN)C(=O)NCCCCCCCC(=O)NC(CCCCN)C(=O)NCCCCCCCC(=O)NC(CCCCN)C(=O)NCCCCCCCC(=O)NC(CCCCN)C(=O)NCCCCCCCC(=O)NC(CCCCN)C(=O)NCCCCCCCC(=O)NC(CCCCN)C(=O)NCCCCCCCC(=O)NC(CCCCN)C(N)=O (stereo not drawn) [C12K-11α8, C12K(NC8K)11NH2]
36.9	–	–	–	–	–	–	–	–	–	–	–	12.5 (≈ 27.9 µg/mL)	50 (≈ 111 µg/mL)	E	G-E	NCCCCCCCCCCCC(=O)NC(CCCCN)C(=O)NCCCCCCCC(=O)NC(CCCCN)C(=O)NCCCCCCCC(=O)NC(CCCCN)C(=O)NCCCCCCCC(=O)NC(CCCCN)C(=O)NCCCCCCCC(=O)NC(CCCCN)C(=O)NCCCCCCCC(=O)NC(CCCCN)C(=O)NCCCCCCCC(=O)NC(CCCCN)C(=O)NCCCCCCCC(=O)NC(CCCCN)C(N)=O (stereo not drawn) [α12-7α8, NC12K(NC8K)7NH2]

The remaining lines, values behind:

Compound	ACN (%) (percent acetonitrile at elution, estimated hydrophobicity) [1]	Cochleate formation [2, 5]	Cochleate formation [2, 6]	Cochleate formation [2, 7]	Cochleate formation [2, 8]	Cochleate formation [2, 9]	Cochleate formation [2, 10]	Cochleate formation [2, 11]	Cochleate formation [2, 12]	Cochleate formation [2, 13]	Cochleate formation [2, 14]	Cochleate formation [2, 15]	MIC E. coli [3] [µM]	MIC A. aureus [4] [µM]	Cochleate formation [2, 16]	Cochleate formation [2, 17]
CCCCCCCCCCCC(=O)N[C@@H](CCCCN)C(=O)NCCCCCCCC(=O)N[C@@H](CCCCN)C(=O)NCCCCCCCC(=O)N[C@@H](CCCCN)C(=O)NCCCCCCCC(=O)N[C@@H](CCCCN)C(=O)NCCCCCCCC(=O)N[C@@H](CCCCN)C(=O)NCCCCCCCC(=O)N[C@@H](CCCCN)C(N)=O [C12K-5α8, C12K(NC8K)5NH2]	49.7	N	E	P	G	N	E	P	G	N	G	P	3.1 (≈ 5.19 µg/mL)	50 (≈ 83.7 µg/mL)	–	–
CCCCCCCCCCCC(=O)N[C@@H](CCCCN)C(=O)NCCCCCCCC(=O)N[C@@H](CCCCN)C(=O)NCCCCCCCC(=O)N[C@@H](CCCCN)C(=O)NCCCCCCCC(=O)N[C@@H](CCCCN)C(=O)NCCCCCCCC(=O)N[C@@H](CCCCN)C(=O)NCCCCCCCC(=O)N[C@@H](CCCCN)C(=O)NCCCCCCCC(=O)N[C@@H](CCCCN)C(N)=O [C12K-6α8, C12K(NC8K)6NH2]	50	–	G	–	–	–	–	–	–	–	G	–	3.1 (≈ 6.03 µg/mL)	50 (≈ 97.2 µg/mL)	–	–
CCCCCCCCCCCC(=O)N[C@@H](CCCCN)C(=O)NCCCC(=O)N[C@@H](CCCCN)C(=O)NCCCC(=O)N[C@@H](CCCCN)C(=O)NCCCC(=O)N[C@@H](CCCCN)C(=O)NCCCC(=O)N[C@@H](CCCCN)C(=O)NCCCC(=O)N[C@@H](CCCCN)C(=O)NCCCC(=O)N[C@@H](CCCCN)C(=O)NCCCC(=O)N[C@@H](CCCCN)C(N)=O [C12K-7α4, C12K(NC4K)7NH2]	45.2	–	–	–	–	–	–	–	–	–	–	–	12.5 (≈ 22.8 µg/mL)	>50	G	G-E
